Numbered stars: 1 amine (or outer) side, 2 acyl side, 3 side chain; on linkers, the order of the positions; unused ones are H or OH. Bridge positions count the residues as written; N and C are the ends. Square brackets hold non-standard residues; d marks the D form. Peptide text beside a SMILES is read from it. Ala(Nα-(CH2)3CO) = C[C@@H](C(=O)[*:2])N(CCCC(=O)[*:3])[*:1]; Ala(Nα-(CH2)3NH) = C[C@@H](C(=O)[*:2])N(CCCN[*:3])[*:1]
How the values were obtained:
[1] = system: IL-6 mediated acute-phase response; experiment: IL-6 mediated acute-phase response (turpentine model); format: in vivo, mice
Text: The objective was to establish a simple first-line in-vivo model, for testing the activity of IL-6 inhibitors. The turpentine model was chosen based on the principal role that IL-6 plays in this inflammatory response.
Systemic and localized inflammation elicit a general reaction in the organism, known as the acute phase response, which includes fever, loss of body weight, hypoglycemia, and changes in the serum levels of several plasma proteins produced by the liver. IL-6 is an important mediator of the acute-phase reaction (see Heinrich et.al., Biochemistry J. 1 265:621, 1990 for a comprehensive review), together with IL-1 and TNF-α. It has been shown previously that sterile tissue damage caused by injection of turpentine induces an acute-phase reaction, and that IL-6 is an essential mediator of this response (Rokita et.al., Cytokine 5:454, 1993).
IL-6 knock-out (-/-) and matched wild-type (C57/Black; CB) mice were used. Sterile tissue damage was induced by subcutaneous injection of turpentine, 0.1 ml, into both hind limbs. IL-6 was determined in the serum by ELISA (QuantikineM, R&D). For liver acute-phase proteins, Fibrinogen was determined in citrated plasma, by the calcium method.
PTR 5045 (SEQ ID NO:75) was tested in this model in compare to the non-relevant control peptide PTR 4041 (SEQ ID NO:33) (Lys-GlyC2-Leu-Ile-Gln-Leu-Phe-GlyN3-Lys-Lys-NH2).

[2] = Metabolic stability in vitro against renal homogenate; format: in vitro ADME
Description: The special feature of the novel backbone cyclic peptide analogs is their metabolic stability as tested in vitro against degradation of the most aggressive enzyme mixture in the body (e.g., renal homogenate). PTR 5045 is stable under these conditions for up to 24 hours.

B16.F10.9 melanoma cells = settings: 200 ng/ml IL-6 and 125 ng/ml sIL-6R, three days, FIG. 2
Description: The F10.9 sub-line of B16 (murine melanoma) expresses gp130 but not IL-6R. Addition of human IL-6 and human IL-6R, or a chimera of IL-6/IL-6R results in differentiation which is associated with growth arrest of the cells. Inhibition of IL-6 results in continued growth. Since the end point of this assay is cell growth rather than cell death, this assay system was used primarily in order to differentiate between suspected toxic effects observed on B9 or T1165 cells, and true inhibition of IL-6 activity.
Evaluation of the results in this assay is possible using two methods. One method uses vital dyes for monitoring cell growth. The second method comprises visual observation of the cell morphology and establishing a cut off point based on the following observations:
Cells which are not treated with IL-6 create a monolayer that covers almost all the surface area. Treatment with IL-6 causes growth arrest and a morphological change: the cells become very narrow and elongated as compared to the more spread out shape of the non-treated cells.
Peptides were added to B16.F10.9 melanoma cells in the presence of 200 ng/ml IL-6 and 125 ng/ml sIL-6R. Incubation for three days.

[3] = mice, turpentine, 1 or 10 mg/kg of peptide

- time stable against degradation by renal homogenate [2]: up to 24 hours
SMILES: CC(C)C[C@@H]1NC(=O)[C@H](C)N(C(=O)[C@H](Cc2ccccc2)NC(=O)[C@@H](CCCNC(=N)N)NC(=O)[C@H](CCCCN)NC(=O)[C@H](CCCNC(=N)N)NC(=O)[C@@H](N)Cc2c[nH]c3ccccc23)CCCC(=O)NCCCN([C@@H](C)C(N)=O)C(=O)[C@@H](Cc2ccc(O)cc2)NC(=O)[C@H](CCCNC(=N)N)NC1=O [PTR 5045, Trp-Arg-Lys-(D)Arg-Phe-AlaC3-Leu-Arg-(D)Tyr-AlaN3-NH2] (H-WRK[dR]F[Ala(Nα-(CH2)3CO)]LR[dY][Ala(Nα-(CH2)3NH)]-NH2; lactam 6-10)
- Mean weight loss % [1, 3]: −3.93%
- Mean weight loss grams [1, 3]: −1.35 grams
- reduction of the effect mediated by IL-6 on body weight during acute inflammation ([1]; versus control peptide PTR 4041): reduces by about half
- concentration that fully blocks IL-6 activity (B16.F10.9 melanoma cells): about 250 nM
